The text below walks through data of patent US10011596B2, “2-amino-3-fluoro-3-(fluoromethyl)-6-methyl-6-phenyl-3,4,5,6-tetrahydropyridines as BACE1 inhibitors” (H. Lundbeck A/S, priority 2015, dated 2018).

Data set [1] deals with T1, human BACE1 (Homo sapiens, UniProt P56817). Put plainly: BACE1 efficacy assay (FRET-based, commercial BACE1 kit). The class given is biochemical. The settings on record: test compound at 10 μM. Further details: purchased Life Technologies P2985. How it is done: The efficacy assay was performed as a FRET-based assay using a commercially available BACE1 kit (Life Technologies, P2985). 2 μl test compound at 10 μM (final concentration) and 15 μl BACE1 enzyme from the kit (final concentration 3 nM) were preincubated for 15 minutes at room temperature before addition of 15 μl of substrate from the kit (250 nM final concentration) and incubated for additional 90 minutes at room temperature. The assay plate was subsequently read in a Pherastar (Ex540/Em590).
T1 sequence (P56817 46-501): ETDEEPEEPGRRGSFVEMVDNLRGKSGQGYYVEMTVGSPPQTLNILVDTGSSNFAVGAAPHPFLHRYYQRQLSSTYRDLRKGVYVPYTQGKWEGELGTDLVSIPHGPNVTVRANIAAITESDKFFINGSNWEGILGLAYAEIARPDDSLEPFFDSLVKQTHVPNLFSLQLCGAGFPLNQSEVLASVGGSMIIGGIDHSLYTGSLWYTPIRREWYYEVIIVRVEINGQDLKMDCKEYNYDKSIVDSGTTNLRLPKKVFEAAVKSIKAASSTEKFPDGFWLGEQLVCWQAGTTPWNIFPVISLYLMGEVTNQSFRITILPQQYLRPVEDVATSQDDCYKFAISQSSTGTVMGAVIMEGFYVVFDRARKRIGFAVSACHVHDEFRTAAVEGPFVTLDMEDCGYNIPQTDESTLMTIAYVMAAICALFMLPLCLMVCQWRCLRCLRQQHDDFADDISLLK

Data set [2] concerns the target T1, human BACE1. Put plainly: BACE1 binding assay (SPA-based, radioligand displacement). Also on record: biotin (biotinylated form); made in house; host or cells: Freestyle HEK293 cells. The settings on record: pH 4.5, 10 nM radioligand, 6 nM human BACE1, read-out: BACE1 binding affinity. On the procedure: The binding assay was performed as SPA-based assay using a biotinylated form of human BACE1 recombinantly expressed and subsequently purified from Freestyle HEK293 cells. The binding assay was run in a 50 mM sodium acetate buffer, pH 4.5 containing 50 mM NaCl and 0.03% Tween-20 in white clear bottom 384 plates (Corning #3653). 10 nM (final concentration) radioligand ([^3H]-N-((1S,2R)-1-benzyl-3-cyclopropylamino-2-hydroxy-propyl)-5-(methanesulfonyl-methyl-amino)-N-((R)-1-phenyl-ethyl)-isophthalamide) (TRQ11569 purchased from GE Healthcare) was mixed with test compound at a given concentration, 6 nM (final concentration) human BACE1 and 25 μg Streptavidin coated PVT core SPA beads (RPNQ0007, GE Healthcare Life Sciences) in a total volume of 40 μl. Several concentrations of each test compound were tested in the assay for IC50 determination. The plates were incubated for one hour at room temperature and counted in a WaIlac Trilux counter. […] For each test compound, a IC50 value (the concentration mediating 50% inhibition of the specific binding of the radioligand) was determined from concentration-response curve and used to calculate the Ki from the equation Ki=IC50/(1+L/Kd), where L and Kd are the final concentration of the radioligand used in the assay and the dissociation constant of the radioligand, respectively. The Kd of the radioligand was determined from saturation binding experiments.

Data set [3] can be described thus: Bioanalysis of brain and plasma samples (exposure, UPLC-MS/MS). In kind it is in vivo, rat. The settings on record: male, Sprague Dawley, po, 3 hours post dose; for Kp at 3 h: brain/plasma, rat, read-out: Brain/Plasma ratio. On the procedure: Young adult Male Sprague Dawley rats of approximately 250 g weight were purchased from Charles River and received 0-30 mg/kg of vehicle (10% HP betaCD+1M MeSO4, pH 2.5) or test compounds (dissolved in vehicle) only by oral gavage (p.o). The compounds are dosed at a volume of 5 ml/kg. Cohorts of 5-10 animals were established for each treatment condition.
At T=180 minutes after initial dosing the animals were stunned and decapitated with a guillotine. Trunk-blood was sampled in EDTA coated tubes after decapitation of the animal. The blood was centrifuged at 2200 G at 4° C. for 15 minutes and the plasma was collected and frozen at −80° C. The blood was aliquoted for Aβ ELISA and pharmacokinetic analysis. Immediately following sacrifice, the brain was extracted and split into 2 halves. The right hemibrains were snap frozen on dry ice and stored at −80° C. The left half was dissected; with the front forebrain taken for Aβ ELISA and the remainder used for DMPK analysis. These samples were also snap frozen on dry ice and stored at −80° C. until use for analysis.
TC (test compound) was determined in plasma and brain homogenate using UltraPerformance LC® (U PLC®) chromatography followed by tandem-MS (MS/MS) detection.
Brain homogenate was prepared by homogenizing the brain 1:4 (v/v) with water:2-propanol:DMSO (50:30:20 v/v/v) followed by centrifugation and collection of the supernatant. Calibration standards and QC samples were prepared using a Hamilton robot. 150 μL of ISTD in acetonitrile (1 ng/mL ISTD) was added to 25 μL of calibration standards, QC samples and test samples (plasma and brain homogenate) using a Biomek robot. After centrifugation (6200 g, 4° C., 20 min) 100 μL supernatant from each sample was transferred to a new plate and mixed with 100 μL water with 0.1% formic acid using a Biomek robot (method file InVivo transfer). After a quick centrifugation (6200 g, 4° C., 5 min) the samples were placed in the auto-sampler.
MS/MS detection was done with an Applied Biosystems Sciex API 4000 instrument in positive-ion electrospray ionisation mode. TC and ISDD were detected at a parent>daughter mass to charge ratio (m/z). Nitrogen was used for the nebulizer and collision gases. The peak area correlated linearly with the plasma and brain concentration of the analytes in the range of 1.00-1000 ng/mL plasma and 5.00-5000 ng/g brain (corrected for dilution). If the plasma/brain sample drug concentration was above 1000 ng/mL or 5000 ng/g, the sample was diluted appropriately in blank plasma/blank brain homogenate before analysis.
Compound 1 was administered at doses of 10 mg/kg p.o. and 30 mg/kg p.o. and brain and plasma samples were collected at 3 hours post dose and the following exposures were measured as described above.

The subject of a further data set is P-gp (MDR1). Kind of data set: MDCK-MDR1 assay (permeability, efflux ratio). The class given is in vitro ADME. The settings on record: dog. How it is done: The permeability of the test compounds was assessed in MDCK-MDR1 cells that were cultured to confluency (4-6 days) in a 96 transwell plate. Test compounds were diluted with the transport buffer (HBSS+1% BSA) to a concentration of 0.5 μM and applied to the apical or basolateral side of the cell monolayer. Permeation of the test compounds from A to B direction or B to A direction was determined in triplicate over a 60-minute incubation time at 37° C. and 5% CO2 with a relative humidity of 95%. Test compounds were quantified by LC-MS/MS analysis based on the peaks area ratios of analyte/IS in both the receiver and donor wells of the transwell plate.
The apparent permeability coefficient Papp (cm/s) was calculated using the equation: Papp=(dCr/dt)×Vr/(A×C0)
Where dCr/dt is the cumulative concentration of compound in the receiver chamber as a function of time (μM/s); Vr is the solution volume in the receiver chamber (0.05 mL on the apical side; 0.25 mL on the basolateral side); A is the surface area for the transport, i.e. 0.0804 cm^2 for the area of the monolayer; C0 is the initial concentration in the donor chamber (μM).

The mark [4] stands for this setting: rat brain, 10 mg/kg p.o., read-out: Exp (ng/g), brain.
[5] abbreviates: rat brain, 30 mg/kg p.o., read-out: Exp (ng/g), brain.
Where [6] appears, read: rat plasma, 10 mg/kg p.o., read-out: Exp (ng/g), plasma.
Setting [7] is: rat plasma, 30 mg/kg p.o., read-out: Exp (ng/g), plasma.

Read-outs that look alike come from different tables or passages of the source.

Take `C[C@@]1(c2cc(NC(=O)c3ccc(F)cn3)ccc2F)CC[C@@](F)(CF)C(N)=N1` [Compound 13, N-(3-((2S,5S)-6-Amino-5-fluoro-5-(fluoromethyl)-2-methyl-2,3,4,5-tetrahydropyridin-2-yl)-4-fluorophenyl)-5-fluoropicolinamide]: at human BACE1 [1], the inhibition at 10 µM stood at 100%. In addition, the Ki at human BACE1 [2] amounted to 0.04 µM. For the same compound, the Kp at 3 h is 1.25 in data set [3] (10 mg/kg p.o.) and 1.59 in data set [3] (30 mg/kg p.o.). For the same compound, the concentration at 3 h in data set [3] (setting [4]) came out at 588 ng/g; in data set [3] (setting [5]) it was 1590 ng/g; in data set [3] (setting [6]), 469 ng/g; in data set [3] (setting [7]), 1000 ng/g. In addition, the efflux ratio at 60 min, 0.5 µM in the data set with P-gp (MDR1) was 1.5.
Take `COc1cnc(C(=O)Nc2ccc(F)c([C@]3(C)CC[C@@](F)(CF)C(N)=N3)c2)cn1` [Compound 5, N-(3-((2S,5S)-6-Amino-5-fluoro-5-(fluoromethyl)-2-methyl-2,3,4,5-tetrahydropyridin-2-yl)-4-fluorophenyl)-5-methoxypyrazine-2-carboxamide]: the inhibition at 10 µM on human BACE1 [1] came out at 103%. Moreover, the Ki on human BACE1 [2] came out at 0.024 µM. Besides, the Kp at 3 h in data set [3] (10 mg/kg p.o.) was found to be 1.95; in data set [3] (30 mg/kg p.o.), 2.74. Besides, the concentration at 3 h in data set [3] (setting [4]) was determined as 536 ng/g; in data set [3] (setting [5]) it was 1610 ng/g; in data set [3] (setting [6]), 275 ng/g; in data set [3] (setting [7]), 587 ng/g. For the same compound, the efflux ratio at 60 min, 0.5 µM in the data set with P-gp (MDR1) stood at 1.07.
With `C[C@@]1(c2cc(NC(=O)c3cnc(C(F)F)cn3)ccc2F)CC[C@@](F)(CF)C(N)=N1` [Compound 11], the inhibition at 10 µM on human BACE1 [1] was determined as 103%. For the same compound, the Ki on human BACE1 [2] worked out at 0.055 µM. Moreover, the Kp at 3 h in data set [3] (10 mg/kg p.o.) came to 2.1; in data set [3] (30 mg/kg p.o.), 2.3. Moreover, the concentration at 3 h was determined as 416 ng/g in data set [3] (setting [4]), 1350 ng/g in data set [3] (setting [5]), 195 ng/g in data set [3] (setting [6]) and 590 ng/g in data set [3] (setting [7]). For the same compound, the efflux ratio at 60 min, 0.5 µM in the data set on P-gp (MDR1) was determined as 1.89.
